Data on 3 compounds can be found in DBAASP.

Common to all, as to assay: ≥ marks a high value that may be exact or a test limit, other limits are often not marked, values filed in µg/mL are converted to µM
The test system of experiment [1] is Enterococcus faecalis ATCC 29212.
Experiment [2] relates to Trichophyton rubrum LABMIC 0203.
The subject of experiment [3] is Klebsiella pneumoniae KpC+001825971.
The subject of experiment [4] is Candida albicans LABMIC 0107.
The subject of experiment [5] is Staphylococcus aureus.
In experiment [6] the test system is Candida parapsilosis ATCC 22019.
The subject of experiment [7] is Klebsiella pneumoniae ATCC 13883.
The subject of experiment [8] is Acinetobacter baumannii.
Experiment [9] concerns Candida tropicalis LABMIC 0112.
The subject of experiment [10] is Papiliotrema laurentii LABMIC 0404.
The test system of experiment [11] is Streptococcus pyogenes.
In experiment [12] the test system is Microsporum canis LABMIC 0401.
Experiment [13] has as its system Pseudomonas aeruginosa ATCC 27853.
Experiment [14] concerns Candida tropicalis LABMIC 0109.
Experiment [15] deals with Staphylococcus aureus ATCC 29213.
Experiment [16] has as its system Candida parapsilosis LABMIC 0113.
Experiment [17] concerns Klebsiella pneumoniae.
Experiment [18] has as its system Escherichia coli.
In experiment [19] the test system is Pseudomonas aeruginosa.
For experiment [20], the system named is Candida krusei ATCC 6258.
Experiment [21] has as its system Escherichia coli KpC+001812446.
Experiment [22] has as its system Staphylococcus aureus ATCC 25923.
Experiment [23] deals with Enterococcus faecalis.
Experiment [24] relates to Pseudomonas aeruginosa ATCC 15442.
For experiment [25], the system named is Candida glabrata ATCC 2001.
Experiment [26] deals with Streptococcus pyogenes ATCC 19615.
Experiment [27] has as its system Lacinutrix algicola AKS293T.
Experiment [28] concerns Staphylococcus aureus ATCC 33591.
In experiment [29] the test system is Psychrobacter sp. PAMC 21119.
Experiment [30] deals with Flavobacterium sp. PAMC 22217.
For experiment [31], the system named is Listeria monocytogenes ATCC 15313.
In experiment [32] the test system is Candida tropicalis ATCC 20115.
Experiment [33] relates to Burkholderia cepacia ATCC 25416.
Experiment [34] deals with Escherichia coli DH5alpha.
Experiment [35] concerns Shigella sonnei ATCC 29930.
Experiment [36] deals with Enterobacter cloacae ATCC 13047.
Experiment [37] relates to Escherichia coli ESBL 63103.
In experiment [38] the test system is Pseudomonas aeruginosa LES400.
Experiment [39] deals with Candida albicans C627.
In experiment [40] the test system is Pseudomonas aeruginosa 213.
Experiment [41] deals with Enterococcus faecium mic80.
For experiment [42], the system named is Pseudomonas aeruginosa H103.
In experiment [43] the test system is Staphylococcus aureus C623.

What is called MIC is the smallest concentration in the dilution series that meets the test's criterion for growth inhibition. Lower therefore signals a more susceptible organism.

In brackets after ≈: the same amount, converted by molar mass. Some results are limits rather than exact numbers.

For `CC[C@H](C)[C@H](NC(=O)[C@H](CCCCN)NC(=O)[C@H](CCCCN)NC(=O)[C@H](CC(C)C)NC(=O)[C@H](CCCN=C(N)N)NC(=O)[C@H](CCCCN)NC(=O)[C@@H](N)CCCCN)C(=O)N[C@@H](Cc1ccccc1)C(=O)N[C@@H](CCCCN)C(=O)N[C@@H](CCCCN)C(=O)N1CCC[C@H]1C(=O)N[C@@H](CCSC)C(=O)N[C@H](C(=O)N[C@H](C(=O)NCC(=O)N[C@H](C(=O)N[C@H](C(=O)N[C@H](C(=O)N1CCC[C@H]1C(=O)N[C@@H](Cc1ccccc1)C(N)=O)[C@@H](C)CC)[C@@H](C)O)C(C)C)[C@@H](C)CC)C(C)C` [KKRLKKIFKKPMVIGVTIPF], the minimal inhibitory concentration (MIC) is over 54 µM in [1]; at least 40 µM in experiment [2]; 3.37 µM (≈ 8 µg/mL) in [3]; 9.99 µM (≈ 23.7 µg/mL) in experiment [4]; over 54 µM in experiment [5]; at least 40 µM in [6]. Besides, the MIC in experiment [7] was 0.843 µM (≈ 2 µg/mL); in experiment [8] it was 1.69 µM (≈ 4 µg/mL); in experiment [9], 5 µM (≈ 11.8 µg/mL); in experiment [10], 5 µM (≈ 11.8 µg/mL); in experiment [11], 3.37 µM (≈ 8 µg/mL); in [12], at least 40 µM. For the same compound, the MIC in experiment [13] is 27 µM (≈ 64 µg/mL); in experiment [14], 9.99 µM (≈ 23.7 µg/mL); in experiment [15], over 54 µM; in [16] it was 5 µM (≈ 11.8 µg/mL); in experiment [17], 3.37 µM (≈ 8 µg/mL); in experiment [18], 3.37 µM (≈ 8 µg/mL). Also, the minimum inhibitory concentration (MIC) in [19] was 27 µM (≈ 64 µg/mL); in experiment [20], 5 µM (≈ 11.8 µg/mL); in [21], 0.843 µM (≈ 2 µg/mL); in experiment [22], 6.75 µM (≈ 16 µg/mL); in experiment [23], at least 54 µM.

In the case of `CC[C@H](C)[C@H](NC(=O)CNC(=O)[C@H](CCCN=C(N)N)NC(=O)[C@H](Cc1ccccc1)NC(=O)[C@H](CC(C)C)NC(=O)[C@H](Cc1cnc[nH]1)NC(=O)CNC(=O)[C@H](Cc1ccccc1)NC(=O)[C@@H](N)Cc1ccccc1)C(=O)N[C@H](C(=O)N[C@@H](CC(N)=O)C(=O)N[C@H](C(=O)NCC(=O)N[C@@H](CCCCN)C(=O)N[C@@H](Cc1cnc[nH]1)C(=O)N[C@H](C(=O)N[C@@H](Cc1cnc[nH]1)C(=O)NCC(=O)N[C@@H](CC(C)C)C(=O)N[C@@H](CC(C)C)C(=O)N[C@@H](CO)C(=O)NCC(N)=O)[C@@H](C)CC)C(C)C)[C@@H](C)CC` [FFGHLFRGIINVGKHIHGLLSG], the minimum inhibitory concentration (MIC) in [1] is 25 µM (≈ 60.5 µg/mL); in experiment [24], at least 50 µM; in experiment [25] it was at least 50 µM; in [26], 2.5 µM (≈ 6.05 µg/mL); in experiment [27], 1.25 µM (≈ 3.02 µg/mL); in experiment [28], 5 µM (≈ 12.1 µg/mL). Moreover, the MIC was 1.25 µM (≈ 3.02 µg/mL) in experiment [29]; 1.5 µM (≈ 3.63 µg/mL) in experiment [30]; 5 µM (≈ 12.1 µg/mL) in [31]; 5 µM (≈ 12.1 µg/mL) in experiment [32]; at least 50 µM in experiment [33]; 5 µM (≈ 12.1 µg/mL) in [34]. Further, the MIC was 5 µM (≈ 12.1 µg/mL) in [35] and 25 µM (≈ 60.5 µg/mL) in [36].

With `NCCCC[C@H](NC(=O)[C@@H](N)CCCN=C(N)N)C(=O)N[C@@H](CCCN=C(N)N)C(=O)N[C@@H](Cc1c[nH]c2ccccc12)C(=O)N[C@@H](Cc1c[nH]c2ccccc12)C(=O)N[C@@H](Cc1c[nH]c2ccccc12)C(=O)N[C@@H](Cc1c[nH]c2ccccc12)C(=O)N[C@@H](Cc1ccccc1)C(=O)N[C@@H](CCCN=C(N)N)C(=O)O` [RKRWWWWFR], the minimal inhibitory concentration (MIC) was determined as 5.31 µM (≈ 8 µg/mL) in experiment [37]; 21.2 µM (≈ 32 µg/mL) in experiment [38]; 5.31 µM (≈ 8 µg/mL) in experiment [39]; 5.31 µM (≈ 8 µg/mL) in experiment [40]; 5.31 µM (≈ 8 µg/mL) in experiment [41]; 1.33 µM (≈ 2 µg/mL) in experiment [42]. Further, the MIC in experiment [43] amounted to 1.33 µM (≈ 2 µg/mL); in [22] it was 2.65 µM (≈ 4 µg/mL).
